Results from patent US20150209316A1, “AGENT FOR ENHANCING IMMUNITY CONTAINING GLUTATHIONE” (KYOWA HAKKO BIO CO., LTD., priority 2012, published 2015).

Legend:
lymphocytes = details: after 3 months, both GSH groups (250 and 1000 mg/day oral), dose dependent
Protocol: The design included the recruitment of healthy subjects (28-79 yr. of age, mean=46.6 years) randomized into 3 groups (GSH at 1000 mg/day, GSH at 250 mg/day, and placebo). […] Blood samples were obtained from all subjects at baseline. Subjects began supplementation according to the following schedule: Glutathione capsules were provided by the sponsor, Kyowa Hakko USA. Capsules were formulated, and subjects began supplementation according to the following schedule as follows: • Group A, GSH: 500 mg/capsule and cellulose: 15 mg/capsule, (2 pills daily); • Group B, GSH: 125 mg/capsule and cellulose: 360 mg/capsule, (2 pills daily); • Group C (placebo), cellulose: 470 mg/capsule, (2 pills daily). […]
(§1) Blood samples were collected from an antecubital vein into 3 tubes containing sodium heparin as an anticoagulant and immediately placed on ice. […] Cell number was assessed after addition of 40 μl trypan blue to 10 μl of cell suspension using a hemocytometer. […]
Lymphocyte Proliferation—Lymphocyte samples from each of the 5 time points (0, 1, 3, 6, and 7 months) were thawed, washed 3 times and counted to determine cell viability. […] Cell proliferation was monitored by 3H-thymidine incorporation. Intracellular radioactivity was measured by liquid scintillation counting and results were expressed as cpm.

[1] = tested on: murine-derived splenic lymphocytes; details: in vitro; cited from earlier work
[2] = tested on: murine-derived splenic lymphocytes; details: in vitro; cited from earlier work; remark: listed apart in the source
human K562 cells = details: after 3 months
Protocol: The design included the recruitment of healthy subjects (28-79 yr. of age, mean=46.6 years) randomized into 3 groups (GSH at 1000 mg/day, GSH at 250 mg/day, and placebo). […] Blood samples were obtained from all subjects at baseline. […] Capsules were formulated, and subjects began supplementation according to the following schedule as follows: • Group A, GSH: 500 mg/capsule and cellulose: 15 mg/capsule, (2 pills daily); • Group B, GSH: 125 mg/capsule and cellulose: 360 mg/capsule, (2 pills daily); • Group C (placebo), cellulose: 470 mg/capsule, (2 pills daily).
Eligible participants were randomly assigned to either placebo (Group C) or high (Group A) or low (Group B) dose glutathione groups. […]
as §1
NK Cell Cytotoxicity—NK cell cytotoxicity was assessed using human K562 cells, labeled with sodium ^51chromate as target cell. […] Lymphocyte samples from each of the five time points were thawed, washed 3 times, counted to determine cell viability and added in triplicate to the wells at an effector:target cell ratio of 10:1. After incubation for 4 hr. at 37° C., cells were collected and supernatant analyzed for radioactivity by gamma counting. […]

NK cell = details: oral administration to a human; cited from earlier work
[3] = oral administration to a human; cited from earlier work
lymphocyte [4] = details: oral administration to a human; cited from earlier work
lymphocyte [5] = details: by administering 2-ME; cited from earlier work

N[C@@H](CCC(=O)N[C@@H](CS)C(=O)NCC(=O)O)C(=O)O [GSH, γ-L-Glu-L-Cys-Gly]
mean proliferative capacity of lymphocytes (3H-thymidine, cpm) (lymphocytes): Increases in mean proliferative capacity were observed | Con A induced lymphocyte proliferation activity [1]: increased in a GSH concentration dependent fashion | NK cell cytotoxic activity [2]: increased in a GSH concentration dependent fashion | mean % lysis values (NK cell cytotoxicity) (human K562 cells; both GSH groups (250 and 1000 mg/day oral), dose dependent, effector:target 10:1): Increases in mean % lysis values were observed | significance of increase in % lysis versus baseline (human K562 cells; high GSH dose arm 1000 mg/day, Ppaired=0.01): only significant in the high GSH dose arm | glutathione concentration in lymphocytes compared to placebo group (Group C) (Group A, 1000 mg/day oral, 1 and 6 months, chi-square test): significant difference (p<0.05) | maximum increase of lymphocyte total glutathione (high dose GSH group (1000 mg/day oral), after 6 months): about 30% | time course of lymphocyte glutathione levels (high dose group (1.0 g/day oral), 1, 3, 6 months): levels progressively increasing from 1 to 3 to 6 months of administration

CC(=O)N[C@@H](CS)C(=O)O [N-acetylcysteine]
NK cell cytotoxic activity (NK cell): increased | glutathione concentration in immune cells [3]: increased | PHA stimulated lymphocyte proliferation (lymphocyte [4]): increased

OCCS [2-melcaptoethanol]
lymphocyte proliferation (lymphocyte [5]): lymphocyte proliferation action
